Reference: ChEMBL document CHEMBL3045512, “Synthesis of some novel triazoloquinazolines and triazinoquinazolines and their evaluation for anti-inflammatory activity” (Med Chem Res, 2012)

What was measured:
Mus musculus [1] = experiment: Toxicity in Mus musculus albino (mouse) assessed as bluish skin at 90 to 340 mg/kg, ip; assay type: organism-based; set-up: dose 90-340 mg/kg, route intraperitoneal; conditions: in vivo
Mus musculus [2] = experiment: Anti-inflammatory activity in Mus musculus albino (mouse) assessed as inhibition of formalin-induced paw swelling at 30 mg/kg, po administered 30 min prior formalin challenge measured after 90 min post challenge (reference value: 9.5 +/- 0.04 mm/min); assay type: functional
Mus musculus [3] = experiment: Toxicity in Mus musculus albino (mouse) assessed as serum ALP level at 300 mg/kg, po for 10 days (reference value: 31.63 +/- 3.73 U/l); assay type: organism-based; set-up: dose 300 mg/kg, route oral; conditions: in vivo, 240 h
Mus musculus [4] = experiment: Toxicity in Mus musculus albino (mouse) assessed as serum SGPT level at 300 mg/kg, po for 10 days (reference value: 35.82 +/- 5.26 U/l); assay type: organism-based; set-up: dose 300 mg/kg, route oral; conditions: in vivo, 240 h
Mus musculus [5] = experiment: Toxicity in Mus musculus albino (mouse) assessed as bluish toe at 90 to 340 mg/kg, ip; assay type: organism-based; set-up: dose 90-340 mg/kg, route intraperitoneal; conditions: in vivo
Mus musculus [6] = experiment: Toxicity in Mus musculus albino (mouse) assessed as SOD activity per gram of Hb at 300 mg/kg, po for 10 days (reference value: 12.7+/- 2.08 U/g Hb); assay type: organism-based; set-up: dose 300 mg/kg, route oral; conditions: in vivo, 240 h
Mus musculus [7] = experiment: Anti-inflammatory activity in Mus musculus albino (mouse) assessed as inhibition of formalin-induced paw swelling at 30 mg/kg, po administered 30 min prior formalin challenge measured after 30 min post challenge (reference value: 9.46 +/- 0.035 mm/min); assay type: functional
Mus musculus [8] = experiment: Toxicity in Mus musculus albino (mouse) assessed as tremor inhind limbs at 90 to 340 mg/kg, ip; assay type: organism-based, Limb; set-up: dose 90-340 mg/kg, route intraperitoneal; conditions: in vivo
Mus musculus [9] = experiment: Toxicity in Mus musculus albino (mouse) assessed as general depression at 90 to 340 mg/kg, ip; assay type: organism-based; set-up: dose 90-340 mg/kg, route intraperitoneal; conditions: in vivo
Mus musculus [10] = experiment: Toxicity in Mus musculus albino (mouse) assessed as rapid respiration at 90 to 340 mg/kg, ip; assay type: organism-based; set-up: dose 90-340 mg/kg, route intraperitoneal; conditions: in vivo
Mus musculus [11] = experiment: Toxicity in Mus musculus albino (mouse) assessed as drop in temperature at extremeties at 90 to 340 mg/kg, ip; assay type: organism-based; set-up: dose 90-340 mg/kg, route intraperitoneal; conditions: in vivo
Mus musculus [12] = experiment: Toxicity in Mus musculus albino (mouse) assessed as GPx activity per gram of Hb at 300 mg/kg, po for 10 days (Rvb =179.16 +/- 10.45 U/g Hb); assay type: organism-based; set-up: dose 300 mg/kg, route oral; conditions: in vivo, 240 h
Mus musculus [13] = experiment: Toxicity in ip dosed Mus musculus albino (mouse) assessed as mortality measured per gram body weight; assay type: organism-based; conditions: in vivo
Mus musculus [14] = experiment: Toxicity in Mus musculus albino (mouse) assessed as serum SGOT level at 300 mg/kg, po for 10 days (reference value: 9.74 +/- 1.73 U/l); assay type: organism-based; set-up: dose 300 mg/kg, route oral; conditions: in vivo, 240 h
Mus musculus [15] = experiment: Anti-inflammatory activity in Mus musculus albino (mouse) assessed as inhibition of formalin-induced paw swelling at 30 mg/kg, po administered 30 min prior formalin challenge measured after 60 min post challenge (reference value: 9.73 +/- 0.06 mm/min); assay type: functional
Mus musculus [16] = experiment: Toxicity in Mus musculus albino (mouse) assessed as increase in heart rate at 90 to 340 mg/kg, ip; assay type: organism-based; set-up: dose 90-340 mg/kg, route intraperitoneal; conditions: in vivo
Mus musculus [17] = experiment: Toxicity in Mus musculus albino (mouse) assessed as GSH activity at 300 mg/kg, po for 10 days (reference value: 59.57 +/- 5.10 %); assay type: organism-based; set-up: dose 300 mg/kg, route oral; conditions: in vivo, 240 h
Mus musculus [18] = experiment: Anti-inflammatory activity in Mus musculus albino (mouse) assessed as inhibition of formalin-induced paw swelling at 30 mg/kg, po administered 30 min prior formalin challenge measured after 120 min post challenge (reference value: 9.83 +/- 0.071 mm/min); assay type: functional
Mus musculus [19] = experiment: Toxicity in Mus musculus albino (mouse) assessed as serum TBARS level at 300 mg/kg, po for 10 days (reference value: 4.35 +/- 0.86 U/l); assay type: organism-based; set-up: dose 300 mg/kg, route oral; conditions: in vivo, 240 h
Mus musculus [20] = experiment: Toxicity in Mus musculus albino (mouse) assessed as brownish eye mucus at 90 to 340 mg/kg, ip; assay type: organism-based; set-up: dose 90-340 mg/kg, route intraperitoneal; conditions: in vivo
Mus musculus [21] = experiment: Toxicity in Mus musculus albino (mouse) assessed as serum gamma-glutamyl transferase level at 300 mg/kg, po for 10 days (reference value: 4.43 +/- 0.31 U/l); assay type: organism-based; set-up: dose 300 mg/kg, route oral; conditions: in vivo, 240 h
Mus musculus [22] = experiment: Toxicity in Mus musculus albino (mouse) assessed as serum LDH level at 300 mg/kg, po for 10 days (reference value: 217.84 +/- 13.36 U/l); assay type: organism-based; set-up: dose 300 mg/kg, route oral; conditions: in vivo, 240 h
Mus musculus [23] = experiment: Toxicity in Mus musculus albino (mouse) assessed as drop in temperature at extremeties at 80 to 375 mg/kg, ip; assay type: organism-based; set-up: dose 80-375 mg/kg, route intraperitoneal; conditions: in vivo
Mus musculus [24] = experiment: Toxicity in Mus musculus albino (mouse) assessed as brownish eye mucus at 70 to 410 mg/kg, ip; assay type: organism-based; set-up: dose 70-410 mg/kg, route intraperitoneal; conditions: in vivo
Mus musculus [25] = experiment: Toxicity in Mus musculus albino (mouse) assessed as rapid respiration at 70 to 410 mg/kg, ip; assay type: organism-based; set-up: dose 70-410 mg/kg, route intraperitoneal; conditions: in vivo
Mus musculus [26] = experiment: Toxicity in Mus musculus albino (mouse) assessed as bluish toe at 70 to 410 mg/kg, ip; assay type: organism-based; set-up: dose 70-410 mg/kg, route intraperitoneal; conditions: in vivo
Mus musculus [27] = experiment: Toxicity in Mus musculus albino (mouse) assessed as general depression at 70 to 410 mg/kg, ip; assay type: organism-based; set-up: dose 70-410 mg/kg, route intraperitoneal; conditions: in vivo
Mus musculus [28] = experiment: Toxicity in Mus musculus albino (mouse) assessed as increase in heart rate at 70 to 410 mg/kg, ip; assay type: organism-based; set-up: dose 70-410 mg/kg, route intraperitoneal; conditions: in vivo
Mus musculus [29] = experiment: Toxicity in Mus musculus albino (mouse) assessed as tremor inhind limbs at 70 to 410 mg/kg, ip; assay type: organism-based, Limb; set-up: dose 70-410 mg/kg, route intraperitoneal; conditions: in vivo
Mus musculus [30] = experiment: Toxicity in Mus musculus albino (mouse) assessed as drop in temperature at extremeties at 70 to 410 mg/kg, ip; assay type: organism-based; set-up: dose 70-410 mg/kg, route intraperitoneal; conditions: in vivo
Mus musculus [31] = experiment: Toxicity in Mus musculus albino (mouse) assessed as bluish skin at 70 to 410 mg/kg, ip; assay type: organism-based; set-up: dose 70-410 mg/kg, route intraperitoneal; conditions: in vivo

Structure (SMILES) | Activity (Mus musculus [2]) [millimeter/min] | Activity (Mus musculus [3]) [U/L] | Activity (Mus musculus [4]) [U/L] | Activity (Mus musculus [6]) [U/g Hb] | Activity (Mus musculus [7]) [millimeter/min] | Activity (Mus musculus [12]) [U/g Hb] | Activity (Mus musculus [13]) [millimeter/min] | Activity (Mus musculus [14]) [U/L] | Activity (Mus musculus [15]) [millimeter/min] | Activity (Mus musculus [17]) [%] | Activity (Mus musculus [18]) [millimeter/min] | Activity (Mus musculus [19]) [nmol/mL] | Activity (Mus musculus [21]) [U/L] | Activity (Mus musculus [22]) [U/L] | also measured
CCOC(=O)c1nn2c(=O)c3ccccc3nc2n1-c1ccc(S(=O)(=O)NC(C)=O)cc1 | 6 | 28.95 | 31.24 | 14 | 6.37 | 177 | 235 | 10.66 | 6.17 | 58.63 | 5.95 | 4.02 | 4.51 | 215.78 | Activity (Mus musculus [1]): Toxic; Activity (Mus musculus [5]): Toxic; Activity (Mus musculus [8]): Toxic; Activity (Mus musculus [9]): Toxic; Activity (Mus musculus [10]): Toxic; Activity (Mus musculus [11]): Toxic; Activity (Mus musculus [16]): Toxic; Activity (Mus musculus [20]): Toxic
CC(=O)NS(=O)(=O)c1ccc(-n2c(-c3ccccc3O)nn3c(=O)c4ccccc4nc23)cc1 | 6.83 | 33.26 | 28.44 | 12.4 | 6.43 | 180 | 213.25 | 11.1 | 6.11 | 60.12 | 6.02 | 4.11 | 4.36 | 211.27 | Activity (Mus musculus [23]): Toxic; Activity (Mus musculus [24]): Toxic; Activity (Mus musculus [25]): Toxic; Activity (Mus musculus [26]): Toxic; Activity (Mus musculus [27]): Toxic; Activity (Mus musculus [28]): Toxic; Activity (Mus musculus [29]): Toxic; Activity (Mus musculus [30]): Toxic; Activity (Mus musculus [31]): Toxic
